Measurements published in paper PMC8175851, “Effects of Genetic Polymorphism in CYP2D6, CYP2C19, and the Organic Cation Transporter OCT1 on Amitriptyline Pharmacokinetics in Healthy Volunteers and Depressive Disorder Patients” (Frontiers in Pharmacology, 2021).

Key:
[1] = Adverse effects of amitriptyline in healthy volunteers (visual analogue scales, pupillometry); type: in vivo, human
Description: After overnight fasting, a single dose of 25 mg […] dura GmbH, Darmstadt, Germany) was orally administered to each subject. […] For the study in healthy volunteers, the primary endpoints were the AUCs of plasma AT and NT concentrations. Secondary endpoints were the other pharmacokinetic parameters of AT and NT, as well as heart rate, blood pressure, pupil size effects, and possible adverse events (headache, fatigue, visual or hearing impairments, restlessness, nausea, dizziness, dry mouth, tremor, as well as sensations of hypothermia and heart palpitations determined using a visual analogue scale test). Pharmacokinetic parameters were calculated by non-compartmental analysis using Phoenix 64 WinNonlin version 6.3 (Certara Inc., Princeton, NJ, United States). AUCinf of AT was calculated from the time of dosing using the linear/log trapezoidal rule and extrapolated to infinity based on the last predicted concentration and using the terminal elimination rate constant (lambda z). AUC of NT was calculated from the time of dosing until the last measurement at 48 h using the linear/log trapezoidal rule, as a decline in NT concentrations was not observed in some subjects and extrapolation to infinity thus not possible.

OCT1 = test: Plasma acylcarnitine concentrations as endogenous biomarkers for OCT1 activity in healthy volunteers; type: in vivo, human
Description: The peripheral venous blood samples of the healthy volunteers were treated with ethylenediaminetetraacetic acid (EDTA) for anticoagulation, centrifuged within 30 min after withdrawal (3,100 × g, 10 min, room temperature), and the plasma was stored at −20°C. For determining the plasma concentrations of AT, NT, IBC, 2-methylbutyrylcarnitine, and propionylcarnitine, plasma samples were mixed with twice the volume precipitation reagent of 10% (v/v) methanol and 90% (v/v) acetonitrile that included the corresponding deuterated internal standards AT-d6 (Biozol Diagnostica GmbH, Eching, Germany), NT-d3, IBC-d6, 2-methylbutyrylcarnitine-d9, and propionylcarnitine-d3 and d9 (all Santa Cruz Biotechnology, Heidelberg, Germany) and shaken for 15 min. After centrifugation (13,000 rpm, 15 min, room temperature), two-thirds of the supernatant were transferred to a new reaction tube and evaporated at 40°C under nitrogen flow. The residue was reconstituted under shaking in 0.1% methanoic acid and briefly centrifuged before quantification using a Nexera UHPLC system (Shimadzu, Kyoto, Japan) coupled to an API 4000 tandem mass spectrometer (AB Sciex, Darmstadt, Germany). Separation was done using a Brownlee SPP RP-Amide column (4.6 × 100 mm inner dimensions, 2.7 µm particle size; PerkinElmer, Rodgau, Germany) with a Phenomenex C18 pre-column (4 × 2 mm, Phenomenex, Aschaffenburg, Germany). For AT and NT, the mobile phase consisted of 0.1% (v/v) methanoic acid, 5.3% (v/v) methanol, and 31.7% (v/v) acetonitrile in water. For the carnitine derivatives, it consisted of 0.1% (v/v) methanoic acid, 0.43% (v/v) methanol, and 2.57% (v/v) acetonitrile in water. The lower limit of quantification was 0.5 ng/ml for AT and 0.1 ng/ml for NT. […]
In order to investigate the proposed suitability of IBC as a human in vivo biomarker for OCT1 activity ([Luo et al., 2020]), plasma concentrations of IBC as well as of 2-methylbutyrylcarnitine and propionylcarnitine were determined in a subgroup of 18 volunteers who participated in the study on AT pharmacokinetics. […]

[2] = no reference given, cited from earlier work
[3] = design: method as in Hardman et al., 2001; conditions: ref Hardman et al., 2001; cited from earlier work
[4] = design: method as in Rudorfer and Potter, 1999; conditions: ref Rudorfer and Potter, 1999; cited from earlier work

CN(C)CCC=C1c2ccccc2CCc2ccccc21 [Amitriptyline, amitriptyline]
serious adverse events ([1]; healthy volunteers, single oral 25 mg AT, entire study): no serious adverse events occurred
tolerability ([1]; healthy volunteers, single oral 25 mg AT, no placebo control): generally well-tolerated
time- and concentration-related adverse effects (dry mouth, visual or hearing impairment, restlessness, headache, nausea, dizziness, sensation of cold) and anticholinergic effects by pupillometry ([1]; visual analogue scales and pupillometry, 25 mg AT dose): not observed
time of peak fatigue symptoms after administration ([1]; visual analogue scales, healthy volunteers, 25 mg AT, no placebo control): 3 h
plasma IBC concentration relative to baseline IBC concentration (OCT1; 2 h after 25 mg AT administration): 72%
plasma IBC concentration relative to baseline IBC concentration (OCT1; 4 h after 25 mg AT administration): 67%
decrease in IBC plasma concentration observed in vivo (OCT1; after 25 mg AT): 33%
positively charged fraction ([2]; at physiological pH): approximately 99%
logD7.4 ([2]; pH 7.4): 3
plasma protein binding [3]: 95%
excreted unchanged in urine [4]: less than 5%
